# According to US20100040552A1, “METHODS TO EVALUATE GLUCOCORTICOID RECEPTOR AGONISTS AND ANTAGONISTS FOR EFFECTS ON NEURON-LIKE CELLS” (ROSETTA INPHARMATICS LLC, priority 2005, published 2010):
# Legend:
# Glucocorticoid Receptor [1] = target: T1, Glucocorticoid Receptor (Homo sapiens, UniProt P04150); test: Transactivation assay, A549 cells; assay type: cell-based; conditions: A549, read-out: Transactivation, A549 Emax
# T1 sequence (P04150 1-777): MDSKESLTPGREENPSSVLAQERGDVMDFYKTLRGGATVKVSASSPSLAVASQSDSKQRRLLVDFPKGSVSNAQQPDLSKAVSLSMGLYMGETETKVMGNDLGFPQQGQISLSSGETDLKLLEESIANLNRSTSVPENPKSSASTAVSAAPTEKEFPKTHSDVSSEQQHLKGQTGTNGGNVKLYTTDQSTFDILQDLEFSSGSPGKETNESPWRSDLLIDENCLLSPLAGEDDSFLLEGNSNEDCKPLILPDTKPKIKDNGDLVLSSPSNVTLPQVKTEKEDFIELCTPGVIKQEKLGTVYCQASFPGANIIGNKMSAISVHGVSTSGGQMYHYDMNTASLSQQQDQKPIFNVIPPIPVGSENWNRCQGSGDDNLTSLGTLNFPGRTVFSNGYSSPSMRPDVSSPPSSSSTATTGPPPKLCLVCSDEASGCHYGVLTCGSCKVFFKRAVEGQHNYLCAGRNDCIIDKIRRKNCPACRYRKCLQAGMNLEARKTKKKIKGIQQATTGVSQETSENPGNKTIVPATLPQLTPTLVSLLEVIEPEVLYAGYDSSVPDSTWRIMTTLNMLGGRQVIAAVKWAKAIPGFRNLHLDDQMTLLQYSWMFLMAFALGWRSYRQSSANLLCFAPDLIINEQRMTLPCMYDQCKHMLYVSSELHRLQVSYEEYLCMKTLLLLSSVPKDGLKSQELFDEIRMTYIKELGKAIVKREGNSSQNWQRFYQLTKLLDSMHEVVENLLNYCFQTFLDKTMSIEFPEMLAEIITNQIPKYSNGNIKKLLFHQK
# [2] = target: T2, PR (progesterone receptor) (Homo sapiens, UniProt P06401); test: PR binding study
# T2 sequence (P06401 1-933): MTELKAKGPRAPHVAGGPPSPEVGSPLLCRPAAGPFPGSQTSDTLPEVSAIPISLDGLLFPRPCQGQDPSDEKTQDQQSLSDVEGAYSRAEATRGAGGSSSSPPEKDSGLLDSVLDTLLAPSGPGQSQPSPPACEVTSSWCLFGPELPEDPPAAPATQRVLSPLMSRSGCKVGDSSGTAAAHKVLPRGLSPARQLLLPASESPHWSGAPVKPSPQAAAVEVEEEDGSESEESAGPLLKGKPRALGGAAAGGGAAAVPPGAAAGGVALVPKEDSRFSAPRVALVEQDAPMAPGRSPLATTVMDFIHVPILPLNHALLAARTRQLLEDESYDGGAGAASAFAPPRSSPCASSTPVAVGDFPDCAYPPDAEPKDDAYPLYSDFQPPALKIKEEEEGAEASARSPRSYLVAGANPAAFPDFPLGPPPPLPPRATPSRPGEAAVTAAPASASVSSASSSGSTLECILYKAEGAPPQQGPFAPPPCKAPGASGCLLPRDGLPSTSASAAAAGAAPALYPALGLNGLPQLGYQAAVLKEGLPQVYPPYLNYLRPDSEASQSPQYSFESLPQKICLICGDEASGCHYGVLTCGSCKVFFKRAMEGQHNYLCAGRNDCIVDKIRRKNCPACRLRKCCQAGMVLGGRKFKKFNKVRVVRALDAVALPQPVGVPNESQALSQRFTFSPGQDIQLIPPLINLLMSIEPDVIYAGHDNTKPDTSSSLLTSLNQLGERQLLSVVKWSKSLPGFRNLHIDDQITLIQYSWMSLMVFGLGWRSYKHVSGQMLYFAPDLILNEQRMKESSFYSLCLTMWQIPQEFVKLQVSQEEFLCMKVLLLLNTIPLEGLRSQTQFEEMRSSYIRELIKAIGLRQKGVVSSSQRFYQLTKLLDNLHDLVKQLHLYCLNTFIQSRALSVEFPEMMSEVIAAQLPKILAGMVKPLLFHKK
# Text: The following abbreviations are used in Table II: MR, mineralocorticoid receptor; GR, glucocorticoid receptor; and PR, progesterone receptor.
# A549 cells = test: A549 cell molecular profiling experiment; assay type: cell-based; conditions: 100 nM
# CA77 cells = test: CA77 cell microarray profiling; assay type: cell-based, rat
# Experimental: In order to reduce false positives, progesterone, estradiol, and aldosterone served as out-groups for non-specific effects. Samples were collected at both 6 hours and 24 hours after contacting the CA77 cells with a compound.
# Glucocorticoid Receptor [3] = target: T1, Glucocorticoid Receptor; test: Transactivation assay, MDA cells; assay type: cell-based; set-up: host or cells: MDA cells; conditions: read-out: Transactivation, MDA Emax
# Glucocorticoid Receptor [4] = target: T1, Glucocorticoid Receptor; test: Transrepression assay, COS cells; assay type: cell-based; set-up: host or cells: COS cells; conditions: COS
smiles,measurement,setting,value
"C[C@@H]1C[C@H]2[C@@H]3CCC4=CC(=O)C=C[C@]4(C)[C@@]3(F)[C@@H](O)C[C@]2(C)[C@@]1(O)C(=O)CO [Dexamethasone, dexamethasone]",Emax,Glucocorticoid Receptor [1],118%
same,IC50,[2],> 1000 nM
same,Up-regulated genes in category DMSO (<0%),A549 cells; set of 1091 genes,0
same,Up-regulated genes in category Full (≧90%),A549 cells; set of 1091 genes,1087
same,Up-regulated genes in category High (66.7-90%),A549 cells; set of 1091 genes,4
same,Up-regulated genes in category Low (0-33.3%),A549 cells; set of 1091 genes,0
same,Up-regulated genes in category Middle (33.3-66.7%),A549 cells; set of 1091 genes,0
same,Down-regulated genes in category DMSO (<0%),A549 cells; set of 1249 genes,0
same,Down-regulated genes in category Full (≧90%),A549 cells; set of 1249 genes,1237
same,Down-regulated genes in category High (66.7-90%),A549 cells; set of 1249 genes,12
same,Down-regulated genes in category Low (0-33.3%),A549 cells; set of 1249 genes,0
same,Down-regulated genes in category Middle (33.3-66.7%),A549 cells; set of 1249 genes,0
same,Sult1a1 up-regulation as detected by microarray,CA77 cells,11 fold
same,Emax,Glucocorticoid Receptor [3],125%
same,Emax at 0.3 µM,"Glucocorticoid Receptor [4]; read-out: Transrepression, COS % Emax, 0.3 μM",100%
same,Emax at 1 µM,"Glucocorticoid Receptor [4]; read-out: Transrepression, COS % Emax, 1 uM",100%
